The target in assay [1] is T1, Tyrosine-protein kinase Mer (Homo sapiens) (UniProt Q12866).
T1 sequence (whole entry): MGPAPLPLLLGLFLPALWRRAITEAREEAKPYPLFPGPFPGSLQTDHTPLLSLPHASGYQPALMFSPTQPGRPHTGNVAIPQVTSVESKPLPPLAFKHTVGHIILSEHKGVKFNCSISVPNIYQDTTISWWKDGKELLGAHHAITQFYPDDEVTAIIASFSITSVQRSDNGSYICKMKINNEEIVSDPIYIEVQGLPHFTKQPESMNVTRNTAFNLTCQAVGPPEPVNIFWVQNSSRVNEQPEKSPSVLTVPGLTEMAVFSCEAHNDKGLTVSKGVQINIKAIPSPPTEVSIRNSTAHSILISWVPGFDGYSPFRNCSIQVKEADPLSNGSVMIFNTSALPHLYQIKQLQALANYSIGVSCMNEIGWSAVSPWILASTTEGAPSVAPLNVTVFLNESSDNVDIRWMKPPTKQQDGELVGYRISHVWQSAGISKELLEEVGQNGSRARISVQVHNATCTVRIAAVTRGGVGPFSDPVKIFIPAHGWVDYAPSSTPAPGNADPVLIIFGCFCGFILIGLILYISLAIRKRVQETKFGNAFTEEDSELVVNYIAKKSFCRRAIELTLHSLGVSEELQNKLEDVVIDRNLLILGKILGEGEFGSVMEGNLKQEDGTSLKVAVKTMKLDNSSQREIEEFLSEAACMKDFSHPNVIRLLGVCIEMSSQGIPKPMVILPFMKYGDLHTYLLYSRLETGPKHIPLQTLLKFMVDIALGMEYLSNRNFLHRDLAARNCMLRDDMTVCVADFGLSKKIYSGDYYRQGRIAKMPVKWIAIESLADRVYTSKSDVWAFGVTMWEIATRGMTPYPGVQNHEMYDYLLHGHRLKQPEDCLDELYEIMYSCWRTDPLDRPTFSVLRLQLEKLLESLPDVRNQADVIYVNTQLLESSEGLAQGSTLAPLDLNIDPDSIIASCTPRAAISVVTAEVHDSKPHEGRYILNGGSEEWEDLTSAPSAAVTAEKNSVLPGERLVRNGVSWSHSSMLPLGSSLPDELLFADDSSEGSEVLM
In words: Selectivity interaction (Kinase panel (Z-LYTE Assay)) EUB0001632a MERTK. To be noted: at 10 µM.

The target of assay [2] is 5'-AMP-activated protein kinase catalytic subunit alpha-2 (Homo sapiens) (UniProt P54646). Nature of the assay: Selectivity interaction (ActivX KiNativ screen (ex vivo kinase selectivity in human PBMCs)) EUB0001619a PRKAA2. Format: cell-based. The settings on record: PBMC, at 1 µM.
Assay [3] addresses RAC-gamma serine/threonine-protein kinase (Homo sapiens, UniProt Q9Y243). In words: Selectivity interaction (KinomeScan (DiscoverX)) EUB0000607a AKT3. To be noted: at 10 µM.
The target in assay [4] is Non-receptor tyrosine-protein kinase TYK2 (Homo sapiens, UniProt P29597). In words: Selectivity interaction (ActivX KiNativ screen (kinase selectivity in THP-1 cell lysates)) EUB0000639a TYK2. In kind it is subcellular. To be noted: lysate, at 0.2 µM.
Assay [5] deals with Tyrosine-protein kinase JAK1 (Homo sapiens, UniProt P23458). In words: Selectivity interaction (KinomeScan (DiscoverX)) EUB0000045b JAK1. The settings on record: at 10 µM.
Assay [6] addresses SRSF protein kinase 1 (Homo sapiens, UniProt Q96SB4). In words: Selectivity interaction (Kinase panel (literature)) EUB0001199aCl SRPK1. To be noted: at 1 µM.
Assay [7] has as its target T2, Serine/threonine-protein kinase PLK4 (Homo sapiens) (UniProt O00444).
T2 sequence (whole entry): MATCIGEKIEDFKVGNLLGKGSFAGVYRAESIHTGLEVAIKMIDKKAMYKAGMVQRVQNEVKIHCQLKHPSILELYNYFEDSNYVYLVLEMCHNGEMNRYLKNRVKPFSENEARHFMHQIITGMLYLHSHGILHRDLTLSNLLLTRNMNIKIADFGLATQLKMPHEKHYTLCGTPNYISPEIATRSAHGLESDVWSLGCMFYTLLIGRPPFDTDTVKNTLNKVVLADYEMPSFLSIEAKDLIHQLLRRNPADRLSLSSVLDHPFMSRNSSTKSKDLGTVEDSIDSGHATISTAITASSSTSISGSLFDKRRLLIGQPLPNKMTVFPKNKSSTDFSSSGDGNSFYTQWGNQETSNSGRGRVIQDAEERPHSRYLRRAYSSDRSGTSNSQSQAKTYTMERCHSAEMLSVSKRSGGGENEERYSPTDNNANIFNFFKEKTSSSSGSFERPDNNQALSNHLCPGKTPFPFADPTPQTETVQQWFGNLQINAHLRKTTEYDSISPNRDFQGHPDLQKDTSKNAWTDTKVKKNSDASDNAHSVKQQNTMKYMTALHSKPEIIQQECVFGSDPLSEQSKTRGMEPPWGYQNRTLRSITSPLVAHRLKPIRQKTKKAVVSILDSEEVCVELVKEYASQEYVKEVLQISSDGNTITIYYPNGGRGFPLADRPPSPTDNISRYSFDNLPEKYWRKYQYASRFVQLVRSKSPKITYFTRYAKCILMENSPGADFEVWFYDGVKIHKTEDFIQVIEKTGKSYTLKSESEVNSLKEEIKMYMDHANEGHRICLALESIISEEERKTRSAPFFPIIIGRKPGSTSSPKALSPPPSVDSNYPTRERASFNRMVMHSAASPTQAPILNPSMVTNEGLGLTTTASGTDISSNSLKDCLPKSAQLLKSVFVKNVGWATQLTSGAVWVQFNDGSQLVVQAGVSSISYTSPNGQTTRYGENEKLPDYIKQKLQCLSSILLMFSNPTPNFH
In words: Selectivity interaction (KinomeScan (DiscoverX)) EUB0000655a PLK4. To be noted: at 10 µM.

Assay [8] addresses T3, Interleukin-1 receptor-associated kinase 4 (Homo sapiens) (UniProt Q9NWZ3).
T3 sequence (whole entry): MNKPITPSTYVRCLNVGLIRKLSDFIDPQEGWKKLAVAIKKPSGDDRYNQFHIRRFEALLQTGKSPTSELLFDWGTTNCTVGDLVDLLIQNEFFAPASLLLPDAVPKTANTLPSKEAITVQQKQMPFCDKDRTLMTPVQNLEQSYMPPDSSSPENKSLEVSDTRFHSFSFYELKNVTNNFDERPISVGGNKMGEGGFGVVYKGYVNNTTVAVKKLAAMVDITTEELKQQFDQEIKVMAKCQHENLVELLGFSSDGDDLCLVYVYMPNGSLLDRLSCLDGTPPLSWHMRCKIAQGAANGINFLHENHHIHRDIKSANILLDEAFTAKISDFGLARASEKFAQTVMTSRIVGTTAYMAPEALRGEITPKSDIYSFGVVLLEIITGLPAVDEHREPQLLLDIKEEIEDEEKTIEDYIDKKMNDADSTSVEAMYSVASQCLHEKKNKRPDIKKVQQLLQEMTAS
Nature of the assay: Selectivity interaction (Kinase panel (KiNativ target engagement assay in Jurkat cells)) EUB0001635a IRAK4. Format: cell-based. To be noted: Selectivity number of off-targets 0.0, Selectivity number of targets 233.0, Source Knowledge https://www.sciencedirect.com/science/article/pii/S2451945619300674?via%3Dihub, at 1 µM.

Here are results for eight compounds from ChEMBL document CHEMBL5465560, “Selectivity Literature for EUbOPEN Chemogenomic Library” (2024).

Tyrosine-protein kinase JAK1, sequence (P23458 whole entry): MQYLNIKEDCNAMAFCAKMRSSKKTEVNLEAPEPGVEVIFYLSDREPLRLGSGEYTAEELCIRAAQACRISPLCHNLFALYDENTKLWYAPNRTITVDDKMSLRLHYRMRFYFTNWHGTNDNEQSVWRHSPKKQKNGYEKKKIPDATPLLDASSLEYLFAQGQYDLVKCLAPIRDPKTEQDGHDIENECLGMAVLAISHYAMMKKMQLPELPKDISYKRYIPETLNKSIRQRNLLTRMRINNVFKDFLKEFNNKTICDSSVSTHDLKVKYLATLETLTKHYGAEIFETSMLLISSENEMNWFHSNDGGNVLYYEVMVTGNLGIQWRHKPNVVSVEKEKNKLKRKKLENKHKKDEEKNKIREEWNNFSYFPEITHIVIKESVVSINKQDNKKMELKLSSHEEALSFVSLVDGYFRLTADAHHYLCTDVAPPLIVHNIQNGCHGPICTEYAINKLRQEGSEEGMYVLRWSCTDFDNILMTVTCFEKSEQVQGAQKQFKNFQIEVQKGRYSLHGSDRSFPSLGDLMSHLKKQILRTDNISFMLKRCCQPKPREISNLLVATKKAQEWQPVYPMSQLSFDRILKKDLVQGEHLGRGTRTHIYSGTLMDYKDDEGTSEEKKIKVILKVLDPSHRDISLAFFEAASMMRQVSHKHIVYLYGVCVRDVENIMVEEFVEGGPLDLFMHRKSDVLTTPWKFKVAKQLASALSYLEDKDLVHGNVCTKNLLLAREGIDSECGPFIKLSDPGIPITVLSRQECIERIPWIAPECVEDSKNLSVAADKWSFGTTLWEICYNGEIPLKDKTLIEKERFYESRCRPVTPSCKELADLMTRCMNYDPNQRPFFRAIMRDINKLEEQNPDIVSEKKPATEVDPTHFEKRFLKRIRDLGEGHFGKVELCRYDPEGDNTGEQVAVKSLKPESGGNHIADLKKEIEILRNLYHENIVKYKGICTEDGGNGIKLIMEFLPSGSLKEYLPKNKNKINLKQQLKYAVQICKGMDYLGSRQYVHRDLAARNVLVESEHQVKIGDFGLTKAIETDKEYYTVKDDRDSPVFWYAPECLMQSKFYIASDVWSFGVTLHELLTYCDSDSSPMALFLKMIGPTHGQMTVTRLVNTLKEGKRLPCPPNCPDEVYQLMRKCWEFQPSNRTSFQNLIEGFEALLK
5'-AMP-activated protein kinase catalytic subunit alpha-2 (Homo sapiens), sequence (P54646 whole entry, looked up): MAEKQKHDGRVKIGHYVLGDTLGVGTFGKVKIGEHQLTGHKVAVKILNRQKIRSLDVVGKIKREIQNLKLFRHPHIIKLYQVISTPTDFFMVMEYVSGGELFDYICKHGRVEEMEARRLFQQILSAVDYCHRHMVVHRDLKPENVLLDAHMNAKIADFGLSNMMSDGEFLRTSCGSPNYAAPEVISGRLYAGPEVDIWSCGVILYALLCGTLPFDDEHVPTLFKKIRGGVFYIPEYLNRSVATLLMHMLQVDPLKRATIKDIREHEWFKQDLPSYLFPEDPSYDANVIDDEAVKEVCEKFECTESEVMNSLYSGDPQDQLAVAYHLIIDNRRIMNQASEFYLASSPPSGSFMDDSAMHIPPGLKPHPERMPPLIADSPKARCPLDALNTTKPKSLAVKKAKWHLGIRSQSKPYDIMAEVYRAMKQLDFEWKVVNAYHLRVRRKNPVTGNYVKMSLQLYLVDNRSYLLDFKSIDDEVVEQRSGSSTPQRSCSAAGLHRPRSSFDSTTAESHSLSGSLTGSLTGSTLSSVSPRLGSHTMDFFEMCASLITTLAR
Non-receptor tyrosine-protein kinase TYK2, sequence (P29597 whole entry): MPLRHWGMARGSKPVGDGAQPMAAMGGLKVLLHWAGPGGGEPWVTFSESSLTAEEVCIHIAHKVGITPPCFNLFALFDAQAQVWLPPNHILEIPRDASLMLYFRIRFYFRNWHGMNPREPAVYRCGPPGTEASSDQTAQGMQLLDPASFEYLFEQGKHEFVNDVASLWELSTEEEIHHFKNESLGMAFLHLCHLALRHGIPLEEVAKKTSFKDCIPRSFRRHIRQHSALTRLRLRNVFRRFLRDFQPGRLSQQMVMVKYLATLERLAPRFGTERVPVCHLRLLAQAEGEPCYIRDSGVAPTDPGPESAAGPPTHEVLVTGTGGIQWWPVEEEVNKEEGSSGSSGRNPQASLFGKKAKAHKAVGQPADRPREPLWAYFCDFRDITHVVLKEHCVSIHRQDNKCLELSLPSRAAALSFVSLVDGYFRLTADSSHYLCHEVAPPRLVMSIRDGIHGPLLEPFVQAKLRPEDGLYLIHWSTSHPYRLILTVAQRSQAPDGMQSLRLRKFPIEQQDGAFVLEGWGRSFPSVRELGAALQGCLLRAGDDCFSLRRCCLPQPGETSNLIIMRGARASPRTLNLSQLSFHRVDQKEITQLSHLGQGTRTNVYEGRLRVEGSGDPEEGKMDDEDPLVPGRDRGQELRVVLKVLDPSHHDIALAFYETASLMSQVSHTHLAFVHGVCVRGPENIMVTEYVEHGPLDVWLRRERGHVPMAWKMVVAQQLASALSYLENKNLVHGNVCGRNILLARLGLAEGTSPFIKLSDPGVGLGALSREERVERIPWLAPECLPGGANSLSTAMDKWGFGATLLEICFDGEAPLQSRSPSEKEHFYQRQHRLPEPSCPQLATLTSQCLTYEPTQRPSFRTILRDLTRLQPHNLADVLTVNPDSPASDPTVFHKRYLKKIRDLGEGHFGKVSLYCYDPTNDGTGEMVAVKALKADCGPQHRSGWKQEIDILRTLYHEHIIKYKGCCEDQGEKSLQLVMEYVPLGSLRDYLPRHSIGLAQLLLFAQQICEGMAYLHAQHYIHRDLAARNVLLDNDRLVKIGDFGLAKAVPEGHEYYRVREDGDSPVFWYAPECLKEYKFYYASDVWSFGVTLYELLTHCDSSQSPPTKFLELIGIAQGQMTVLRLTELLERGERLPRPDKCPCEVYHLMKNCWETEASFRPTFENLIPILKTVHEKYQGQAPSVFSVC
SRSF protein kinase 1, sequence (Q96SB4 whole entry): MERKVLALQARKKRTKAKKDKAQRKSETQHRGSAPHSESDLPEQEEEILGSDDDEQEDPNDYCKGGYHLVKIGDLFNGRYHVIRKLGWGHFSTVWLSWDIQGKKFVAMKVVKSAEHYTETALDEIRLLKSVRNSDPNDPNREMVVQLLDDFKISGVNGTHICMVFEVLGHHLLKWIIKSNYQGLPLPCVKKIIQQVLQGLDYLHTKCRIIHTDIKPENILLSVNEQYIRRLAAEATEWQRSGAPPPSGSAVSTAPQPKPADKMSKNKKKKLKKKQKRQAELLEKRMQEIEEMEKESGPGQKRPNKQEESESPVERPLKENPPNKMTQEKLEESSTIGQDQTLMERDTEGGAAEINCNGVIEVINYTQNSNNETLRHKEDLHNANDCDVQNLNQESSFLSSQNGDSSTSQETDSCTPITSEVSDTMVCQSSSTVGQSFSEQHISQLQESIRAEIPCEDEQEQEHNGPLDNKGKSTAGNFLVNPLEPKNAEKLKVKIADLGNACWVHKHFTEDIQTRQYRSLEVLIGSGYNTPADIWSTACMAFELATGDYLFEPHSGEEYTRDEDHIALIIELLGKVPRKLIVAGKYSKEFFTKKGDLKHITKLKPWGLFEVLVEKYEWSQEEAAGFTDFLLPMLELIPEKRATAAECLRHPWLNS
RAC-gamma serine/threonine-protein kinase, sequence (Q9Y243 whole entry): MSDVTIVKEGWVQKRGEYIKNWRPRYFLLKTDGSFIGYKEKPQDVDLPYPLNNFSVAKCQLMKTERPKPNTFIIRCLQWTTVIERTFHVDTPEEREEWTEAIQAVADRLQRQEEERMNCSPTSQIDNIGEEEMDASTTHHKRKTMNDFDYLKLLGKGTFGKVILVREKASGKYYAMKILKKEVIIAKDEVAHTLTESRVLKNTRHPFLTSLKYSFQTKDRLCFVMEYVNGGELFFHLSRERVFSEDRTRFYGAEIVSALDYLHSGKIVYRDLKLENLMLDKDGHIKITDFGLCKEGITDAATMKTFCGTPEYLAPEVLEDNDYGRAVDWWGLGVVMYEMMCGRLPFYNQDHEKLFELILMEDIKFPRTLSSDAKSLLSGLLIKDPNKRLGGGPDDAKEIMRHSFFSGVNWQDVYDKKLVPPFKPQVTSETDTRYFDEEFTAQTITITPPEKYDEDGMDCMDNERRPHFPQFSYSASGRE

The compound `Cn1cc(-n2cnc3c(NCc4nc5cc(Cl)c(Cl)cc5[nH]4)nc(N4CCOCC4)nc32)cn1` yielded a % of control in assay [1] of 4.55%.
For `N#Cc1cccc(-c2c[nH]c3ncnc(N4CCOCC4)c23)c1`, the % of inhibition in assay [2] turned out to be 27%.
In the case of `CNC(=O)Nc1ccc(-c2nc(N3CC4CCC(C3)O4)c3cnn(C4CCC5(CC4)OCCO5)c3n2)cc1`, the % of control in assay [3] worked out at 86%.
Consider `CC[C@@H]1[C@H](F)C(=O)N[C@@H]1COc1nccc2cc(C(N)=O)c(OC)cc12` [ZIMLOVISERTIB], for which the % of inhibition in assay [4] was found to be 14%.
`C=CC(=O)Nc1cc(-n2c(=O)ccc3cnc4ccc(-c5ccc(NS(C)(=O)=O)cc5)cc4c32)ccc1C` registered a % of control in assay [5] of 93%.
In assay [6], `CN1Cc2nccc(-c3cn(C)nc3-c3ccc(F)cc3)c2C1=O` displayed a % of inhibition of 8%.
In assay [7], `CN(C)CCOc1ccc(-c2nc(-c3ccncc3)c(-c3ccc4c(c3)CC/C4=N\O)[nH]2)cc1` came in with a % of control of 83%.
With `C=CC(=O)Nc1ccc(C(=O)Nc2[nH]nc3c2CN(C(=O)N[C@H](CN(C)C)c2ccccc2)C3(C)C)cc1`, in assay [8], the % of engagement is 2%.
